Measurements from patent US6838450B2, “Drug complex” (Daiichi Pharmaceutical Co., LTD, priority 1996, dated 2005).
Counter-ions that a name gives are not always drawn. Peptide text beside a SMILES is read from it.

Key:
[1] = test system: mouse fibrosarcoma Meth A cells; test: Antitumor activity, Meth A tumor-bearing mice, injection every 4 days 4 times; details: for antitumor activity (in words): compared to the drug compound, per se; for Inhibition rate (%): tail vein every 4 days from day 7, tumor weight day 21
Protocol: Meth A tumor-bearing mice were prepared (7 mice per group) by subcutaneously transplanting 1×10^6 mouse fibrosarcoma Meth A cells into the right inguinal regions of BALB/c male mice (7-week old). On day 7, the drug complex of Example 9 dissolved in distilled water for injection was injected in the tail vein of the Meth A tumor-bearing mice every 4 days 4 times. On day 21 after the transplantation, tumor masses were excised and weighed to calculate the inhibition rate of tumor growth according to the following equation: inhibition rate of tumor growth (%)=[1−(average tumor weight of the group administered with the test sample/average tumor weight of control group)]×100.

[2] = test system: mouse fibrosarcoma Meth A cells; test: Antitumor activity, Meth A tumor-bearing mice, single administration; type: in vivo; details: for Inhibition rate (%): Table 3; for antitumor activity (in words) / effective dose-range: single administration, compared to the drug compound, per se
Protocol: Meth A tumor-bearing mice (6 mice per group) were prepared according to a similar manner to that of Example 11 and the antitumor activity was compared to that obtained by single administration of the drug complexes of Examples 8 and 9 once on day 7. As a result, the degree of the antitumor activity was as follows: (Polysaccharide derivative)-Gly-Gly-Phe-Gly-NH—A′>(Polysaccharide derivative)-Gly-Gly-Gly-Phe-NH—A′>the drug compound, per se.
Meth A tumor-bearing mice (6 mice per group) were prepared according to a similar manner to that of Example 11, and the antitumor activity of the drug complex of Example 41 was examined in the cases of single administration in a similar manner to that of Example 12, and its antitumor activity was compared to that of the drug compound, per se. […]

[3] = test system: mouse fibrosarcoma Meth A cells; test: as above; type: in vivo
[4] = Pharmacokinetics in Meth A tumor-bearing mice; type: in vivo, mouse; details: single administration, 10 mg/kg calculated as the drug compound; FIG. 24
Human lung cancer QG-90 = test: Antitumor activity, human lung cancer QG-90-bearing nude mice; type: in vivo, mouse; details: for Inhibition rate (%) / Numbers of died mice/mice used: single intravenous administration on day 16, nude mice
Protocol: (§1) SC-6 tumor-bearing nude mice (5 mice per group) were prepared by subcutaneously transplanting a piece of SC-6 human gastric tumor block into the right inguinal regions of nude mice (BALB/c-nu/nu, male).
Human lung cancer QG-90-bearing nude mice (5 mice per group) were prepared according to a similar manner to that of Example 57.

SC-6 human gastric tumor = test: Antitumor activity, SC-6 tumor-bearing nude mice; type: in vivo, mouse; details: for Inhibition rate (%) / Numbers of died mice/mice used: single intravenous administration on day 27, nude mice
Protocol: as §1

[5] = 5 mg/kg calculated based on the drug compound, single administration on day 7
[6] = Example 60, 20 mg/kg calculated based on the drug compound, single administration, 20 mg/kg
[7] = Example 60, 40 mg/kg calculated based on the drug compound, single administration
[8] = Example 60, 80 mg/kg calculated based on the drug compound, single administration
[9] = Example 60, 100 mg/kg calculated based on the drug compound, single administration
[10] = 1.75 mg/kg calculated based on the drug compound
[11] = 7 mg/kg calculated based on the drug compound
[12] = single intravenous administration, compared to the drug compound, per se
[13] = 2 mg/kg calculated based on the drug compound
[14] = 8 mg/kg calculated based on the drug compound

CC[C@@]1(O)C(=O)OCc2c1cc1n(c2=O)Cc2c-1nc1cc(F)c(C)c3c1c2[C@@H](NC(=O)CNC(=O)[C@H](Cc1ccccc1)NC(=O)CNC(=O)CN)CC3 [3′-N-(Gly-Gly-Phe-Gly)-NH—A (A—NH2=DX-8951) trifluoroacetic acid salt] (HELM PEPTIDE1{G.G.F.G.[CC[C@@]1(O)C(=O)OCc2c1cc1n(c2=O)Cc2c-1nc1cc(F)c(C)c3c1c2[C@@H](N[*:1])CC3]}$$$$V2.0)
antitumor activity (in words) ([1]; every 4 days 4 times): not effective

CC[C@@]1(O)C(=O)OCc2c1cc1n(c2=O)Cc2c-1nc1cc(F)c(C)c3c1c2[C@@H](N)CC3 [DX-8951, (1S,9S)-1-amino-9-ethyl-5-fluoro-2,3-dihydro-9-hydroxy-4-methyl-1H,12H-benzo[de]pyrano[3′,4′:6,7]indolizino[1,2-b]quinoline-10,13(9H,15H)-dione, reference compound]
Inhibition rate (%) ([2]; 20 mg/kg single administration on day 7, drug compound = DX-8951): 59% | Inhibition rate (%) ([2]; 60 mg/kg single administration on day 7, drug compound = DX-8951): 77%

carboxymethyldextran polyalcohol-Gly-Gly-Gly-Phe-NH—A′ (A—NH2=DX-8951) [Example 8]
Inhibition rate (%) [2, 5]: 76% | Inhibition rate (%) ([2]; 10 mg/kg calculated based on the drug compound, single administration on day 7): 85%

carboxymethyldextran polyalcohol-Gly-Gly-Gly-Phe-NH—A′ (A—NH2=DX-8951) [Example 29]
Inhibition rate (%) ([3]; Example 60, 5 mg/kg calculated based on the drug compound, single administration): 79% | Inhibition rate (%) ([3]; Example 60, 10 mg/kg calculated based on the drug compound, single administration): 89% | Inhibition rate (%) [3, 6]: 99% | Inhibition rate (%) ([3]; Example 60, 30 mg/kg calculated based on the drug compound, single administration): 99% | antitumor activity (in words) [2]: high | effective dose-range [2]: broader

carboxymethyldextran polyalcohol-Gly-Gly-Gly-Phe-NH—A′ (A—NH2=DX-8951) [Example 46]
Inhibition rate (%) [3, 6]: 75% | Inhibition rate (%) [3, 7]: 82% | Inhibition rate (%) [3, 8]: 92% | Inhibition rate (%) [3, 9]: 94% | antitumor activity (in words) [2]: high | effective dose-range [2]: broader

carboxymethyldextran polyalcohol-Gly-Gly-Phe-Gly-DXR [Example 44]
Inhibition rate (%) ([3]; Example 61, 5 mg/kg calculated based on the drug compound, single administration): 76% | Inhibition rate (%) ([3]; Example 61, 10 mg/kg calculated based on the drug compound, single administration): 87% | Inhibition rate (%) ([3]; Example 61, 20 mg/kg calculated based on the drug compound, single administration): 96% | Inhibition rate (%) ([3]; Example 61, 40 mg/kg calculated based on the drug compound, single administration): 96% | antitumor activity (in words) [2]: remarkably enhanced | effective dose-range [2]: broader

carboxymethyldextran polyalcohol-Gly-Gly-Phe-Gly-NH—A′ (A—NH2=DW-8089) [Example 41]
Inhibition rate (%) ([3]; Example 59, 3.125 mg/kg calculated based on the drug compound, single administration): 61% | Inhibition rate (%) ([3]; Example 59, 6.25 mg/kg calculated based on the drug compound, single administration): 81% | Inhibition rate (%) ([3]; Example 59, 12.5 mg/kg calculated based on the drug compound, single administration): 95% | Inhibition rate (%) ([3]; Example 59, 25 mg/kg calculated based on the drug compound, single administration): 99% | antitumor activity (in words) [2]: remarkably enhanced | effective dose-range [2]: broader

carboxymethyldextran polyalcohol-Gly-Gly-Phe-Gly-NH—A′ (A—NH2=DX-8951) [Example 9]
Inhibition rate (%) ([1]; dose 0.35 mg/kg × 4 calculated based on the drug compound): 41% | Inhibition rate (%) ([1]; dose 0.7 mg/kg × 4 calculated based on the drug compound): 59% | Inhibition rate (%) ([1]; dose 1.4 mg/kg × 4 calculated based on the drug compound): 94% | toxicity (weight loss) ([1]; every 4 days 4 times): no toxicity | antitumor activity (in words) ([1]; every 4 days 4 times): remarkably enhanced | Inhibition rate (%) ([3]; Table 3, 2.5 mg/kg calculated based on the drug compound, single administration on day 7): 87% | Inhibition rate (%) [2, 5]: 98%

carboxymethyldextran polyalcohol-Gly-Gly-Phe-Gly-NH—A′ (A—NH2=DX-8951) [Example 15]
distribution in tumor tissues [4]: high | retention of blood level [4]: extremely long | Inhibition rate (%) ([3]; Example 56, 1.25 mg/kg calculated based on the drug compound, single administration): 83% | Inhibition rate (%) ([3]; Example 56, 2.5 mg/kg calculated based on the drug compound, single administration): 95% | Inhibition rate (%) ([3]; Example 56, 5 mg/kg calculated based on the drug compound, single administration): 99% | Inhibition rate (%) ([3]; Example 56, 10 mg/kg calculated based on the drug compound, single administration): 100% | antitumor activity (in words) [2]: remarkably enhanced | effective dose-range [2]: broader | Inhibition rate (%) (Human lung cancer QG-90; [10]): 97% | Numbers of died mice/mice used (Human lung cancer QG-90; [10]): 0/5 | Inhibition rate (%) (Human lung cancer QG-90; [11]): 98% | Numbers of died mice/mice used (Human lung cancer QG-90; [11]): 0/5 | antitumor activity (in words) (Human lung cancer QG-90; [12]): remarkably enhanced | effective dose-range (Human lung cancer QG-90; [12]): broader | Inhibition rate (%) (SC-6 human gastric tumor; [13]): 71% | Numbers of died mice/mice used (SC-6 human gastric tumor; [13]): 0/5 | Inhibition rate (%) (SC-6 human gastric tumor; [14]): 100% | Numbers of died mice/mice used (SC-6 human gastric tumor; [14]): 0/5 | death due to toxicity (SC-6 human gastric tumor; single intravenous administration): no death | antitumor activity (in words) (SC-6 human gastric tumor; [12]): higher

α-methylcarboxymethyldextran polyalcohol-Gly-Gly-Gly-Phe-NH—A′ (A—NH2=DX-8951) [Example 47]
Inhibition rate (%) ([3]; Example 60, 20 mg/kg calculated based on the drug compound, single administration): 75% | Inhibition rate (%) [3, 7]: 97% | Inhibition rate (%) [3, 8]: 94% | Inhibition rate (%) [3, 9]: 96% | antitumor activity (in words) [2]: high | effective dose-range [2]: broader
